Measurements as given in patent publication US6391914B1, “Optically active aminopentane derivatives” (Fujimoto Brothers Co., Ltd., priority 1998, dated 2002).
Counter-ions that a name gives are not always drawn. Like-named read-outs stand apart in the source and are kept apart here.

Tests used:
α1 receptor = assay: Receptor affinity, 3H-prazocin binding; parameters: species or system rats; conditions: 0.25 nmol/L 3H-prazocin; read-out: Affinity to α1 receptor: concentration showing 50% inhibition between ligand and receptor
Experimental: (§1) The receptor solution was prepared as follows. After the rats were decapitated, brain was immediately isolated and weighed. Thereafter, brain samples were homogenized in ten times volumes of ice-cold 0.35 mol/L sucrose (pH 7.4) using glass homogenizer with Teflon pestle, which was revolted by motors. The homogenate was centrifuged at 4° C. at 900×g for 10 min and the supernatant was, furthermore, recentrifuged at 4° C. at 22,000×g for 20 min. The precipitate was suspended with addition of 5 mmol/L phosphate buffer solution (pH 7.4). After the suspension was incubated at 37° C. for 30 min, the suspension was recentrifuged at 4° C. at 20,000×g for 20 min. The precipitate was resuspended in 10 ml of 5 mmol/L phosphate buffer solution (pH 8.0) to be receptor solution.
^3H-prazocin was used as a ligand. 0.25 nmol/L of ^3H-prazocin, the compounds of the invention and the receptor solution, which were respectively prepared in 5 mmol/L phosphate buffer (pH 8), were put in tube and the mixture was incubated at 25° C. for 90 min. In addition, the nonspecific binding was evaluated with binding value of ^3H-prazocin in the presence of 0.1 μmol/L prazocin. […] After 10 ml of scintillation cocktail was put in it, the radioactivity was measured. Affinity of the compounds of the invention to α1 receptor was evaluated from the inhibition rate of binding between α1 receptor and the ligand.

D1 receptor = target: T1, D1 receptor (Rattus norvegicus, UniProt P18901); assay: Receptor affinity, 3H-SCH-23390 binding; parameters: species or system rats
T1 construct: from tissue; host or cells: rat brain membranes
Experimental: as §1, with “The precipitate was resuspended in 10 ml of 5 mmol/L phosphate buffer solution (pH 8.0) to be receptor solution.” left out
(§2) ^3H-prazocin was used as a ligand. […] In addition, the nonspecific binding was evaluated with binding value of ^3H-prazocin in the presence of 0.1 μmol/L prazocin. […] After 10 ml of scintillation cocktail was put in it, the radioactivity was measured. Affinity of the compounds of the invention to α1 receptor was evaluated from the inhibition rate of binding between α1 receptor and the ligand.
(§3) Affinities of the compounds of the invention to receptors of α2, D1, D2, 5-HT1 and 5-HT2 were respectively determined in the same manner, while used 0.7 nmol/L ^3H-rauwolscine, 1.4 nmol/L ^3H-SCH-23390, 2.0 nmol/L spiperone, 2 nmol/L ^3H-5-HT and 0.5 nmol/L ^3H-ketanserin as each ligands. […]

α2 receptor = assay: Receptor affinity, 3H-rauwolscine binding; parameters: species or system rats; conditions: 0.7 nmol/L 3H-rauwolscine, read-out: Affinity to α2 receptor: concentration showing 50% inhibition between ligand and receptor
Experimental: as §1
^3H-prazocin was used as a ligand. 0.25 nmol/L of ^3H-prazocin, the compounds of the invention and the receptor solution, which were respectively prepared in 5 mmol/L phosphate buffer (pH 8), were put in tube and the mixture was incubated at 25° C. for 90 min. In addition, the nonspecific binding was evaluated with binding value of ^3H-prazocin in the presence of 0.1 μmol/L prazocin. The binding assay was carried out as follows. After ^3H-prazocin (binding type: B) bound to receptor, only the binding type of ^3H-prazocin was collected using B/F separator (Brandel, USA) with glass fiber filter (pore size: 0.5 μm Whatman GF/C), and free type of prazocin (free type: F) was removed. Glass-fiber filter, absorbing the binding type of ^3H-prazocin, was washed with ice-cold saline solution and transferred to vial. After 10 ml of scintillation cocktail was put in it, the radioactivity was measured. Affinity of the compounds of the invention to α1 receptor was evaluated from the inhibition rate of binding between α1 receptor and the ligand.
as §3

[1] = target: T2, monoamine oxidase type-B (MAO-B) (Mus musculus, UniProt Q8BW75); assay: Mice brain MAO-B inhibition (14C-phenylethylamine); format: biochemical; conditions: concentration of 10^−5 mol/L
T2 construct: the pellet was resuspended in the above buffer to be enzyme solution; from tissue; host or cells: whole brain of male C57Bl/6 mice, 40,000 g pellet
T2 sequence (Q8BW75 1-520): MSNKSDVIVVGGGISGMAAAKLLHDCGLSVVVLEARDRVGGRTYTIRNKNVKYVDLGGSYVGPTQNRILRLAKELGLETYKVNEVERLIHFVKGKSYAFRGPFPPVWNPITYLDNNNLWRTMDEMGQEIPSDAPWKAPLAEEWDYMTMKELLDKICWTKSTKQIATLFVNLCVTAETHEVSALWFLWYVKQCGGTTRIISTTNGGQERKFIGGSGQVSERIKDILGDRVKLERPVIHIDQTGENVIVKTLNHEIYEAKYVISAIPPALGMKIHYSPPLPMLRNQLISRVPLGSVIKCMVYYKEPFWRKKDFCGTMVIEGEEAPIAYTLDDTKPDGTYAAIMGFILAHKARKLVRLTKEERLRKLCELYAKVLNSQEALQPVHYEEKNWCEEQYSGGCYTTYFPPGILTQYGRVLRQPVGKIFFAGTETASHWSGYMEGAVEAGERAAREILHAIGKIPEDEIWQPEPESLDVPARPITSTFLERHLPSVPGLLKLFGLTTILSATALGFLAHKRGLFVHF
Experimental: After male C57B1/6 mice were decapitated, the whole brain was isolated immediately. The brain samples were weighed, and homogenized in 0.2 mol/L potassium phosphate buffer (pH 7.5) containing 1.0% EDTA-2Na by homogenizer. After the homogenate was centrifuged at 2,000 RPM for 20 min, the supernatant was centrifuged at 18,000 RPM (40,000 g) for 30 min. The pellet was resuspended, and further centrifuged in the same manner. Thereafter, the pellet was resuspended in the above buffer to be enzyme solution. All procedure was carried out at 4° C.
^14C-Labeled substrate (^14C-phenylethylamine) and enzyme solution from mice are mixed in test tube, incubated for 30 min at 37° C., and stopped the reaction with 20 μL of 6 mol/L Hcl. The reaction product was extracted with toluene-ethylacetate (1:1), and the radioactivity was measured using scintillation counter. Then, MAO-B inhibitory activity was calculated.

D2 receptor = target: T3, D2 receptor (Rattus norvegicus, UniProt P61169); assay: Receptor affinity, spiperone binding; parameters: species or system rats
T3 construct: from tissue; host or cells: rat brain membranes
Experimental: as §1, with “The precipitate was resuspended in 10 ml of 5 mmol/L phosphate buffer solution (pH 8.0) to be receptor solution.” left out
as §2, §3

5-HT1 receptor = assay: Receptor affinity, 3H-5-HT binding; parameters: species or system rats; conditions: 2 nmol/L 3H-5-HT; read-out: Affinity to 5-HT1 receptor: concentration showing 50% inhibition between ligand and receptor
Experimental: as §1, with “The precipitate was resuspended in 10 ml of 5 mmol/L phosphate buffer solution (pH 8.0) to be receptor solution.” left out
as §2, §3

5-HT2 receptor = target: T4, 5-HT2 receptor (Rattus norvegicus, UniProt P14842); assay: Receptor affinity, 3H-ketanserin binding; parameters: species or system rats
T4 construct: from tissue; host or cells: rat brain membranes
Experimental: as §1, with “The precipitate was resuspended in 10 ml of 5 mmol/L phosphate buffer solution (pH 8.0) to be receptor solution.” left out
as §2, §3

mice = assay: Toxicity test in mice in the single administration; format: in vivo; conditions: 100 mg/kg p.o., observed two weeks

T4 sequence (P14842 whole entry): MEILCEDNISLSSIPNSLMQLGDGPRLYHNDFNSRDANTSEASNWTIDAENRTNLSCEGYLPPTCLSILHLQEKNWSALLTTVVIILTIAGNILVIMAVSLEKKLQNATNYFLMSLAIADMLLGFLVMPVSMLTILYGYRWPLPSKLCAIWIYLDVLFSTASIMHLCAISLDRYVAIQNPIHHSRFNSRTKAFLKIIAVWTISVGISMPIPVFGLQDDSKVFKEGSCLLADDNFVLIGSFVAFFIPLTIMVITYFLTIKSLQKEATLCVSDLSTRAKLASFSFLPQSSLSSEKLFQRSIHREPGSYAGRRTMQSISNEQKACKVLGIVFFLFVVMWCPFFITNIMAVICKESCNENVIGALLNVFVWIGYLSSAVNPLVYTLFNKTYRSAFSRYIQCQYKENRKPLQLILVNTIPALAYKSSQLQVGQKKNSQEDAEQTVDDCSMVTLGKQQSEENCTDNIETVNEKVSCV
T3 sequence (P61169 whole entry): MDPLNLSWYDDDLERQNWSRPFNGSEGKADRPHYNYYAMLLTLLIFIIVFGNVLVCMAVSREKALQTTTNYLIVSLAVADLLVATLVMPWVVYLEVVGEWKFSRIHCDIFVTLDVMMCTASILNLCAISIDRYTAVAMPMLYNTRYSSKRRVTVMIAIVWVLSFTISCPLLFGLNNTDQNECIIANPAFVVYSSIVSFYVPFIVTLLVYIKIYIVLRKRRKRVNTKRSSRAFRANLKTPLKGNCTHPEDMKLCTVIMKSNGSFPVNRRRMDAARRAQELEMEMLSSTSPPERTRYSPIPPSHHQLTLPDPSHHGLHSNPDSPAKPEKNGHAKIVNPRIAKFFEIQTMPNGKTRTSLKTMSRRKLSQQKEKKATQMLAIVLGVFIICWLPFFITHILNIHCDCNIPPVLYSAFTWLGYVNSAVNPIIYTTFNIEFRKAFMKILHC
T1 sequence (P18901 whole entry): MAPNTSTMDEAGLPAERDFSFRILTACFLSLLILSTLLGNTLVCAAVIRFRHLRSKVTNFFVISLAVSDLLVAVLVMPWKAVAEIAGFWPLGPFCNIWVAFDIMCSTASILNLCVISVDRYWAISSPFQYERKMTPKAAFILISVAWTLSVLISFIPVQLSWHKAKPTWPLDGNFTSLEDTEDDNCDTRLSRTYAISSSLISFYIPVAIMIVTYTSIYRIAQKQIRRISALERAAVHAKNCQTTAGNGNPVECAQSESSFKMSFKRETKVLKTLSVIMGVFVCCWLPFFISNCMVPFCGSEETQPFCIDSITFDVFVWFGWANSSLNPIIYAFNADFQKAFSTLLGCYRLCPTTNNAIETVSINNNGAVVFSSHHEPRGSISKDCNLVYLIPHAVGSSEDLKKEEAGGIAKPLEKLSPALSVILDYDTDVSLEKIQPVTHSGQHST

Structure (SMILES)	IC50 (α1 receptor) [µM]	IC50 (D1 receptor) [µM]	IC50 (α2 receptor) [µM]	inhibition at 10 µM ([1]; read-out: Mice brain MAO-B inhibitory activity) [%]	IC50 (D2 receptor) [µM]	IC50 (5-HT1 receptor) [µM]	IC50 (5-HT2 receptor) [µM]	IC50 (α2 receptor; hydrochloride) [µM]	Mice brain MAO-B inhibitory activity [1] [%]	Survival of mice after single administration (mice)
CCCNC(CCC)Cc1cc2ccccc2o1.Cl (racemic) [Racemic compound, (±)-1-(benzofuran-2-yl)-2-propylaminopentane hydrochloride]	> 10	> 10	1	22.9	> 10	> 10	20	–	–	–
CCCNC(CCC)Cc1cc2ccccc2o1.Cl (single isomer, unassigned; (+)) [(+)-Isomer, (+)-1-(benzofuran-2-yl)-2-propylaminopentane hydrochloride]	–	–	–	–	–	–	> 10	2.6	1.7	–
CCCNC(CCC)Cc1cc2ccccc2o1 (single isomer, unassigned; (-)) [The compound of the invention, (−)-1-(benzofuran-2-yl)-2-propylaminopentane hydrochloride]	> 10	> 10	–	–	> 10	> 10	–	3.1	4.7	every three numbers of mice survived
